In article PMC2900529 (FEBS letters, 2010):

Experiments:
E. coli LysRS = molecular target: T1, E. coli LysRS (Escherichia coli, UniProt P0A8N3); test: amino acid activation; type: biochemical; conditions: analog 25 mM; ATP
T1 sequence (P0A8N3 2-505): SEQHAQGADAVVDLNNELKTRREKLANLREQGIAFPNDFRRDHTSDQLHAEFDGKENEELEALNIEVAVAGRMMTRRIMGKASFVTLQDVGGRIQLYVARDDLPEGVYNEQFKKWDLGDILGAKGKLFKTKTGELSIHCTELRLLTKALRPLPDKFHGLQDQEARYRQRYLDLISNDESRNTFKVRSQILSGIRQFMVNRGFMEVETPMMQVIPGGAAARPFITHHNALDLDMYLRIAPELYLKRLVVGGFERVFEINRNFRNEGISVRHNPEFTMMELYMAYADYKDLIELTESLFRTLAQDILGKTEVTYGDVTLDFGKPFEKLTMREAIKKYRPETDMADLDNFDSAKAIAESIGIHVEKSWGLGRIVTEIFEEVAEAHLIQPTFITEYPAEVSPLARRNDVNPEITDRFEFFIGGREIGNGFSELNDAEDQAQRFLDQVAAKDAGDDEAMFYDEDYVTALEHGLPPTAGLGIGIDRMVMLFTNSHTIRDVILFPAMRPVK

GenX (PoxA, YjeA) = molecular target: T2, GenX (PoxA, YjeA) (Escherichia coli, UniProt P0A8N7); test: inhibition of lysine activation, ATP-[…]PPi exchange; type: biochemical
T2 sequence (P0A8N7 1-325): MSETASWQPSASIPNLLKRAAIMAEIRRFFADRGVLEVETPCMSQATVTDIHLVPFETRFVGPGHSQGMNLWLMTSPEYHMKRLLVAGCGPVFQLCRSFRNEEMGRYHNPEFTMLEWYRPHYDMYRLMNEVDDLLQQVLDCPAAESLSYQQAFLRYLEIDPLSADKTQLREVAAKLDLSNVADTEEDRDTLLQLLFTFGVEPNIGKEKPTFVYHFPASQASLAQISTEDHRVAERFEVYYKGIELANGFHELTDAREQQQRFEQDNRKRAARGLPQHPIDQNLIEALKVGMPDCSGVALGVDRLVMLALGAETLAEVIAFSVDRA

Row | Compound | amino acid activation (E. coli LysRS) | Ki (GenX (PoxA, YjeA)) [µM]
1 | NCCSC[C@H](N)C(=O)O [compound 1, S-(2-aminoethyl)-L-cysteine] | E. coli LysRS readily activates S-(2-aminoethyl)-L-cysteine (AEC), ornithine | 
2 | NCCCC[C@H](N)C(=O)NO [compound 2, L-lysine hydroxamate] |  | 150
3 | NCCCC[C@H](N)C(N)=O [compound 3, lysinamide] |  | 280
